Measurements published in patent US20200016058A1, “HORNY LAYER FUNCTION IMPROVING AGENT” (Ajinomoto Co., Inc., priority 2017, published 2020).
Where a SMILES comes first, the peptide text is derived from it.

Legend:
filaggrin = experiment: Gene expression test using normal human epidermal keratinocytes (RT-PCR), filaggrin; format: cell-based; details: Keratinocyte, 48 hours, relative value to control, read-out: FLG (filaggrin) gene expression amount
Description: (§1) Normal human epidermal keratinocytes (Kurabo Industries Ltd.) were cultured with HuMedia KG2 (Kurabo Industries Ltd.) at 37° C. and 5% CO2 under saturated vapor. Cells that have become confluent were seeded in a 6-well plate with a seeding density of 3.0×10^5 (cells/well).
(§2) For each evaluation sample, each D-amino acid adjusted in the culture medium so as to be 100 μM or 500 μM was used. On the next day of seeding, each evaluation sample was adjusted to be 100 μM or 500 μM, and each well culture medium was exchanged. Culturing was performed for 48 hours, RNA was extracted from the cells using RN easy mini kit (Qiagen), which was synthesized into cDNA using High-Capacity cDNA Reverse Transcription Kit with RNase Inhibitor (Thermo Fisher). With this cDNA as a template, a sample added group and a control group were compared with each other by the RT-PCR method (7500 fast system (Thermo Fisher)) to evaluate gene expression amounts of filaggrin, involucrin, loricrin, keratin 10, and transglutaminase 1. In Table 4, FLG, IVL, K10, LOR, and TGM indicate filaggrin, involucrin, keratin 10, loricrin, and transglutaminase 1, respectively.

involucrin = experiment: Gene expression test using normal human epidermal keratinocytes (RT-PCR), involucrin; format: cell-based; details: Keratinocyte, 48 hours, relative value to control, read-out: IVL (involucrin) gene expression amount
Description: as §1, §2

keratin 10 = experiment: Gene expression test using normal human epidermal keratinocytes (RT-PCR), keratin 10; format: cell-based; details: Keratinocyte, 48 hours, relative value to control, read-out: K10 (keratin 10) gene expression amount
Description: as §1, §2

transglutaminase 1 = experiment: Gene expression test using normal human epidermal keratinocytes (RT-PCR), transglutaminase 1; format: cell-based; details: 48 hours, relative value to control
Description: as §1, §2

[1] = test system: filaggrin, involucrin, loricrin, keratin 10, and transglutaminase 1; experiment: Gene expression test using normal human epidermal keratinocytes, text summary over the target genes; format: cell-based; details: 100 μM or 500 μM, summary of Table 4; for expression amounts of the respective target genes: all five target genes
Description: as §1, §2

laminin 332 = details: reported in WO 2011/040082; cited from earlier work
loricrin = experiment: Gene expression test using normal human epidermal keratinocytes (RT-PCR), loricrin; format: cell-based; details: 48 hours, relative value to control
Description: as §1, §2

[2] = orally administered; cited filing; cited from earlier work
[3] = JP 2012-006870; determined only by the subjectivity of subjects; cited from earlier work
[4] = test system: filaggrin, involucrin, transglutaminase 1, keratin 10, and loricrin; details: cited from earlier work

expression amounts of the respective target genes of filaggrin, involucrin, keratin 10, and transglutaminase 1 [1] | expression amounts of the respective target genes of filaggrin, involucrin, keratin 10, and loricrin [1] | SMILES | fold induction at 100 µM (filaggrin) | fold induction at 500 µM (filaggrin) | fold induction at 100 µM (involucrin) | fold induction at 500 µM (involucrin) | fold induction at 100 µM (keratin 10) | fold induction at 500 µM (keratin 10) | TGM (transglutaminase 1) gene expression amount (transglutaminase 1; 100 μM) | laminin 332 production promotion effect (laminin 332) | LOR (loricrin) gene expression amount (loricrin; 500 μM) | LOR (loricrin) gene expression amount (loricrin; 100 μM) | TGM (transglutaminase 1) gene expression amount (transglutaminase 1; 500 μM) | expression amounts of the respective target genes [1] | TEWL value [2] | moisture retaining effect [3] | expression promotion action of moisture retention-related proteins such as filaggrin ([4]; applicant's assessment of the prior art) | expression of filaggrin, involucrin, transglutaminase 1, keratin 10, and loricrin ([4]; reported in WO 2014/175001 and JP 2012-232920)
increases |  | C[C@@H](N)C(=O)O [D-Ala, D-alanine] | 1.23 | 1.18 | 1.28 | 1.15 | 1.47 | 1.21 | 1.20 | promote the production of laminin 332 |  |  |  |  |  |  |  | 
 | increases | NC(=O)C[C@@H](N)C(=O)O [D-Asn, D-asparagine] |  | 1.55 |  | 1.34 |  | 1.21 |  |  | 1.80 |  |  |  |  |  |  | 
 |  | N[C@H](CC(=O)O)C(=O)O [D-Asp, D-aspartic acid] | 1.35 | 1.45 | 1.49 | 1.42 | 2.43 | 2.1 | 1.13 | not expressed | 2.10 | 2.34 | 1.20 | increases |  |  |  | 
 |  | N[C@H](CCC(=O)O)C(=O)O [D-Glu, D-glutamic acid] |  | 1.69 |  | 1.34 |  | 1.25 |  |  | 2.07 |  | 1.13 | increases | reduces |  |  | 
 |  | NCCCC[C@@H](N)C(=O)O [D-Lys, D-lysine] | 1.48 | 1.29 | 1.27 | 1.72 | 1.35 | 2.16 | 1.12 |  | 1.39 | 2.02 |  | increases |  | expressed |  | 
 |  | N[C@H](Cc1ccccc1)C(=O)O [D-Phe, D-phenylalanine] |  | 1.52 |  | 1.32 |  | 1.32 |  |  | 1.78 |  | 1.26 | increases |  |  |  | 
 |  | N[C@H](Cc1c[nH]c2ccccc12)C(=O)O [D-Trp, D-tryptophan] | 1.77 | 3.3 | 2.05 | 2.43 | 2.44 | 3.43 | 1.42 |  | 3.45 | 1.71 | 1.50 | increases |  |  |  | 
 |  | CC[C@H](C)[C@@H](N)C(=O)O [D-allo-Ile, D-allo-isoleucine] | 1.3 | 1.21 | 1.18 | 1.13 | 1.31 | 1.41 |  |  |  | 1.31 | 1.27 | increases |  |  |  | 
 |  | O=C(O)[C@H]1C[C@H](O)CN1 [D-hydroxyproline, reference compound] |  |  |  |  |  |  |  | promote the production of laminin 332 |  |  |  |  |  |  |  | 
 |  | NCCCC[C@H](N)C(=O)O [L-lysine, reference compound] |  |  |  |  |  |  |  |  |  |  |  |  |  | expressed |  | 
 |  | NCC(=O)N1CCC[C@H]1C(=O)O [glycylproline] (H-Gly-Pro-OH) |  |  |  |  |  |  |  |  |  |  |  |  |  |  | weak | promoted
